# Data from US20260258397A1, “REAGENTS AND SYSTEMS FOR […]” (priority 2023, published 2026).
# What was measured:
# PYR1^WIN-M = molecular target: T1, PYR1^WIN-M (Arabidopsis thaliana, UniProt O49686, A160I/D26G/F159A/H60P/K59Q/N90S/Y23H); test: PYR1 ELISA-like plate assay, immobilized PYR1^WIN-M with biotinylated ΔN-HAB1^T+; assay type: binding; settings: PYR1^WIN-M ELISA-like format
# T1 construct: made in house; host or cells: E. coli
# Method: PYR1 was immobilized overnight in clear plates, blocked with KPL milk diluent in buffer CBS ^17 (CBSM). All binding reactions were performed using CBSM. Detection was performed via binding a streptavidin-HRP conjugate to biotinylated ΔN-HAB1^T+ followed by incubation with a commercial TMB reagent. Lower limits of detection (LODs) were determined by linear regression of the response data in the low linear range using the formula LOD=3σy/m, where m is the slope of the response line and σy is the standard error of the y intercept using data combined from biological replicates.
# Unconjugated 6×His-MBP-PYR1 variants were immobilized to Microlon clear plates (655081) using 100 μL of CBS without pH modification, at a protein concentration of 100 μg mL^−1, or 1.57 AM at 4° C. overnight. Wells assigned as no PYR controls received only CBS. Plates were sealed using Microseal B adhesive sealers (BioRad MSB-1001). […] The pellet was stored on ice until the blocked and washed plates were ready to receive the binding reactions. ΔN-HAB1^T+ was exchanged into CBSM with 1 mM DTT and 1 mM TCEP (CBSM++) using Zeba™ spin desalting columns (Thermo) were equilibrated with CBSM++. ΔN-HAB1^T+ was diluted to 10× the final binding reaction concentration and was immediately added to the pre-assembled assays in PCR plates, which were mixed by pipetting and transferred to the washed, blocked Microlon plates. […]
# [1] = system: PYR1 mutant receptors (ligand-dependent binding to HAB1); test: Yeast two-hybrid screens of PYR1 DSM and CB-S libraries for cannabinoid sensors
# T1 sequence (O49686 whole entry Y23H/D26G/K59Q/H60P/N90S/F159A/A160I, other chains not shown): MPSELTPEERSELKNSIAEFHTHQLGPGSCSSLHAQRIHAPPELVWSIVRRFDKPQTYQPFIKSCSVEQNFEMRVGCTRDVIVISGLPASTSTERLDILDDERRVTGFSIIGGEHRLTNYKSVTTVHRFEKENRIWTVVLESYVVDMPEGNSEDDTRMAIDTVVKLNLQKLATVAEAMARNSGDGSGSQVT
compound,measurement,setting,value
"Cc1c(C(=O)c2cccc3ccccc23)c2cccc3c2n1[C@H](CN1CCOCC1)CO3 [WIN 55,212-2]",average LOD from two biological replicates,PYR1^WIN-M,0.21 ng/ml
same,affinity of improved sensors,"[1]; CB-S2 library screened on 50 nM, 25 nM: JWH-015 PYR1 K59N/Y120H/F159L/A160G, JWH-016 V81I/Y120G/F159L/A160G, JWH-072 E4G/K59N/Y120H/F159L/A160G, WIN 55,212 E4G/Y23H/D26G/K59Q/F159A/A160I",low nM affinity
same,outcome of DSM library Y2H selection,"[1]; DSM library selected on 30 μM ligand, hits for 'pM concentrations' as printed",double mutant hits
